# Experimental data reported in patent US6936585B2, “Corticotropin releasing factor 2 receptor agonists” (priority 2002, dated 2005).
# Like-named read-outs stand apart in the source and are kept apart here. Ends that are not written are not given here. Peptide text beside a SMILES is read from it.
# Experiments:
# CRF1R = target: T1, CRF1R (Homo sapiens, UniProt P34998); experiment: CRF1R agonist activation (EC50 / Emax), called comparative CRF binding; assay type: cell-based; details: for EC50: read-out: CRF1R EC50
# T1 sequence (P34998 24-415): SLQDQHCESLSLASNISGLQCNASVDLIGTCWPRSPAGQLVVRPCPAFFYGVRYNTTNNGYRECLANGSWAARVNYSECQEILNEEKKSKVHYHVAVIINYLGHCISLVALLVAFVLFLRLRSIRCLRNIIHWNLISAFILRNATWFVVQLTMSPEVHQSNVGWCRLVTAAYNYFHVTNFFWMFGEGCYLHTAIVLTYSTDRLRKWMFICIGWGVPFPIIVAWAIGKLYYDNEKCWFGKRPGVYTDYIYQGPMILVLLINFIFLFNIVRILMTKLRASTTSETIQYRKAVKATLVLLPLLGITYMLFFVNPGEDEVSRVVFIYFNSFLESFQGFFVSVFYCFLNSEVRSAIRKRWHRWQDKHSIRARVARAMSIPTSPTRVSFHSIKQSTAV
# Summary of the method: (§1)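 Cells expressing human CRF1R or CRF2R are exposed to peptide or vehicle control, and receptor activation is read as cAMP induction, measured in cell lysates or via a CRE-linked reporter gene.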
# CRF2R = target: T2, CRF2R (Homo sapiens, UniProt Q13324); experiment: CRF2R agonist activation (EC50 / Emax), called comparative CRF binding; assay type: cell-based; details: for EC50: read-out: CRF2R EC50
# T2 sequence (Q13324 1-411): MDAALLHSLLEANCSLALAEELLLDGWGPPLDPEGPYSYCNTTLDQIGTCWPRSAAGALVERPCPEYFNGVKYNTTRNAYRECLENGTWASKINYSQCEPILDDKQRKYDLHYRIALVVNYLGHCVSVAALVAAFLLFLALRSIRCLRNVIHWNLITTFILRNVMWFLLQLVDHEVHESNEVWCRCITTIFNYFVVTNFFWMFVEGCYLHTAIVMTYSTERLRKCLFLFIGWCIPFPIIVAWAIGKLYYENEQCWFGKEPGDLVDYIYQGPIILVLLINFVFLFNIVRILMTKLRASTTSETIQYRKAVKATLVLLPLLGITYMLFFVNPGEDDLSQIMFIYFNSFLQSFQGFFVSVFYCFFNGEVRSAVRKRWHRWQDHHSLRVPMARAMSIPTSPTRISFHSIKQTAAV
# Summary of the method: as §1
compound,measurement,setting,value
"CC[C@H](C)[C@H](NC(=O)[C@H](CO)NC(=O)[C@H](CC(C)C)NC(=O)[C@H](CO)NC(=O)[C@@H]1CCCN1C(=O)[C@H](CC(N)=O)NC(=O)[C@@H](N)CC(=O)O)C(=O)N[C@@H](CC(=O)O)C(=O)N[C@@H](CC(C)C)C(=O)N[C@H](C(=O)N[C@@H](Cc1ccccc1)C(=O)N[C@@H](Cc1c[nH]cn1)C(=O)N[C@@H](CC(C)C)C(=O)N[C@@H](CC(C)C)C(=O)N[C@@H](CCCNC(=N)N)C(=O)N[C@H](C(=O)N[C@@H](CC(C)C)C(=O)N[C@@H](CC(C)C)C(=O)N[C@@H](CCC(=O)O)C(=O)N[C@@H](CC(C)C)C(=O)N[C@@H](C)C(=O)N[C@@H](CCCNC(=N)N)C(=O)N[C@H](C(=O)N[C@@H](CCC(N)=O)C(=O)N[C@@H](CO)C(=O)N[C@@H](CCC(N)=O)C(=O)N[C@@H](CCCNC(=N)N)C(=O)N[C@@H](CCC(=O)O)C(=O)N[C@@H](CCCNC(=N)N)C(=O)N[C@@H](C)C(=O)N[C@@H](CCC(=O)O)C(=O)N[C@@H](CCC(N)=O)C(=O)N[C@@H](CC(N)=O)C(=O)N[C@@H](CCCNC(=N)N)C(=O)N[C@H](C(=O)N[C@H](C(=O)N[C@@H](Cc1ccccc1)C(=O)N[C@@H](CC(=O)O)C(=O)N[C@@H](CO)C(=O)N[C@H](C(N)=O)C(C)C)[C@@H](C)CC)[C@@H](C)CC)[C@@H](C)O)[C@@H](C)O)[C@@H](C)O [hUcnI, human urocortin I, reference compound] (H-DNPSLSIDLTFHLLRTLLELARTQSQRERAEQNRIIFDSV-NH2)",Emax,"CRF1R; read-out: CRF1R (Emax %), Emax",100%
same,Emax,"CRF2R; read-out: CRF2R (Emax %), Emax",100%
CC[C@H](C)[C@H](N)C(=O)N[C@H](C(=O)N[C@@H](CC(C)C)C(=O)N[C@@H](CO)C(=O)N[C@@H](CC(C)C)C(=O)N[C@@H](CC(=O)O)C(=O)N[C@H](C(=O)N1CCC[C@H]1C(=O)N[C@H](C(=O)NCC(=O)N[C@@H](CC(C)C)C(=O)N[C@@H](CC(C)C)C(=O)N[C@@H](CCC(N)=O)C(=O)N[C@H](C(=O)N[C@@H](CC(C)C)C(=O)N[C@@H](CC(C)C)C(=O)N[C@@H](CCC(=O)O)C(=O)N[C@@H](CCC(N)=O)C(=O)N[C@@H](C)C(=O)N[C@@H](CCCNC(=N)N)C(=O)N[C@@H](CCC(N)=O)C(=O)N[C@@H](CCCNC(=N)N)C(=O)N[C@@H](C)C(=O)N[C@@H](C)C(=O)N[C@@H](CCCNC(=N)N)C(=O)N[C@@H](CCC(=O)O)C(=O)N[C@@H](CCC(N)=O)C(=O)N[C@@H](C)C(=O)N[C@H](C(=O)N[C@H](C(=O)N[C@@H](CC(N)=O)C(=O)N[C@@H](C)C(=O)N[C@@H](CCCNC(=N)N)C(=O)N[C@H](C(=O)N[C@@H](CC(C)C)C(=O)N[C@@H](C)C(=O)N[C@@H](CCCNC(=N)N)C(=O)N[C@H](C(N)=O)C(C)C)[C@@H](C)CC)[C@@H](C)O)[C@@H](C)O)[C@@H](C)CC)[C@@H](C)CC)C(C)C)C(C)C [compound 114] (H-IVLSLDVPIGLLQILLEQARQRAAREQATTNARILARV-NH2; N-terminus assumed),Emax,CRF1R; read-out: CRF1R Emax,6%
same,Emax,CRF2R; read-out: CRF2R Emax,100%
CC[C@H](C)[C@H](N)C(=O)N[C@H](C(=O)N[C@@H](CC(C)C)C(=O)N[C@@H](CO)C(=O)N[C@@H](CC(C)C)C(=O)N[C@@H](CC(=O)O)C(=O)N[C@H](C(=O)N1CCC[C@H]1C(=O)N[C@H](C(=O)NCC(=O)N[C@@H](CC(C)C)C(=O)N[C@@H](CC(C)C)C(=O)N[C@@H](CCC(N)=O)C(=O)N[C@@H](CCC(=O)O)C(=O)N[C@@H](CC(C)C)C(=O)N[C@@H](CC(C)C)C(=O)N[C@@H](CCC(=O)O)C(=O)N[C@@H](CCSC)C(=O)N[C@@H](C)C(=O)N[C@@H](CCCNC(=N)N)C(=O)N[C@@H](C)C(=O)N[C@@H](CCC(=O)O)C(=O)N[C@@H](CCC(N)=O)C(=O)N[C@@H](CC(C)C)C(=O)N[C@@H](C)C(=O)N[C@@H](CCC(N)=O)C(=O)N[C@@H](CCC(N)=O)C(=O)N[C@@H](C)C(=O)N[C@@H](Cc1c[nH]cn1)C(=O)N[C@@H](CO)C(=O)N[C@@H](CC(N)=O)C(=O)N[C@@H](CCCNC(=N)N)C(=O)N[C@@H](CCCCN)C(=O)N[C@@H](CC(C)C)C(=O)N[C@@H](CCSC)C(=O)N[C@@H](CCC(=O)O)C(=O)N[C@H](C(=O)N[C@H](C(N)=O)[C@@H](C)CC)[C@@H](C)CC)[C@@H](C)CC)C(C)C)C(C)C [compound 1] (H-IVLSLDVPIGLLQELLEMARAEQLAQQAHSNRKLMEII-NH2; N-terminus assumed),Emax,CRF1R; read-out: CRF1R Emax,64%
same,Emax,CRF2R; read-out: CRF2R Emax,100%
CC[C@H](C)[C@H](NC(=O)[C@H](CCCNC(=N)N)NC(=O)[C@H](C)NC(=O)[C@H](CC(N)=O)NC(=O)[C@H](CCC(N)=O)NC(=O)[C@H](CCC(=O)O)NC(=O)[C@H](C)NC(=O)[C@H](CCCNC(=N)N)NC(=O)[C@H](CCC(=O)O)NC(=O)[C@H](CCCNC(=N)N)NC(=O)[C@H](CCC(N)=O)NC(=O)[C@H](CO)NC(=O)[C@H](CCC(N)=O)NC(=O)[C@@H](NC(=O)[C@H](CCCCN)NC(=O)[C@H](CCC(=O)O)NC(=O)[C@H](CC(C)C)NC(=O)[C@H](CCC(=O)O)NC(=O)[C@H](CC(C)C)NC(=O)[C@H](CC(C)C)NC(=O)[C@@H](NC(=O)[C@H](CCCNC(=N)N)NC(=O)[C@H](CC(C)C)NC(=O)[C@H](CC(C)C)NC(=O)[C@H](Cc1ccc(O)cc1)NC(=O)[C@H](CC(C)C)NC(=O)[C@@H]1CCCN1C(=O)[C@@H](NC(=O)[C@H](CC(=O)O)NC(=O)[C@@H](NC(=O)[C@H](CO)NC(=O)[C@H](CC(C)C)NC(=O)[C@H](CO)NC(=O)[C@@H]1CCCN1C(=O)[C@H](CC(N)=O)NC(=O)[C@@H](N)CC(=O)O)[C@@H](C)CC)C(C)C)[C@@H](C)O)[C@@H](C)O)C(=O)N[C@@H](Cc1ccccc1)C(=O)N[C@@H](C)C(=O)N[C@@H](CCCNC(=N)N)C(=O)N[C@H](C(N)=O)C(C)C [compound 387] (H-DNPSLSIDVPLYLLRTLLELEKTQSQRERAEQNARIFARV-NH2; N-terminus assumed),EC50,CRF1R,≥ 1000 nM
same,Emax,CRF1R; read-out: CRF1R Emax,50.1%
same,EC50,CRF2R,17.8 nM
same,Emax,CRF2R; read-out: CRF2R Emax,100%
NDDPPISIDLPLHLLRNMIEMARIENEREQAGLNAKYLAEV-NH2 [compound 259],Emax,CRF1R; read-out: CRF1R Emax,83.6%
same,Emax,CRF2R; read-out: CRF2R Emax,65%
CC[C@H](C)[C@H](N)C(=O)N[C@H](C(=O)N[C@@H](CC(C)C)C(=O)N[C@@H](CO)C(=O)N[C@@H](CC(C)C)C(=O)N[C@@H](CC(=O)O)C(=O)N[C@H](C(=O)N1CCC[C@H]1C(=O)N[C@H](C(=O)NCC(=O)N[C@@H](CC(C)C)C(=O)N[C@@H](CC(C)C)C(=O)N[C@@H](CCC(N)=O)C(=O)N[C@H](C(=O)N[C@@H](CC(C)C)C(=O)N[C@@H](CC(C)C)C(=O)N[C@@H](CCC(=O)O)C(=O)N[C@@H](CCC(N)=O)C(=O)N[C@@H](CCC(=O)O)C(=O)N[C@@H](CCCCN)C(=O)N[C@@H](CCC(N)=O)C(=O)N[C@@H](CCCNC(=N)N)C(=O)N[C@@H](C)C(=O)N[C@@H](C)C(=O)N[C@@H](CCCNC(=N)N)C(=O)N[C@@H](CCC(=O)O)C(=O)N[C@@H](CCC(N)=O)C(=O)N[C@@H](C)C(=O)N[C@H](C(=O)N[C@H](C(=O)N[C@@H](CC(N)=O)C(=O)N[C@@H](C)C(=O)N[C@@H](CCCNC(=N)N)C(=O)N[C@H](C(=O)N[C@@H](CC(C)C)C(=O)N[C@@H](C)C(=O)N[C@@H](CCCNC(=N)N)C(=O)N[C@H](C(N)=O)C(C)C)[C@@H](C)CC)[C@@H](C)O)[C@@H](C)O)[C@@H](C)CC)[C@@H](C)CC)C(C)C)C(C)C [compound 115] (H-IVLSLDVPIGLLQILLEQEKQRAAREQATTNARILARV-NH2; N-terminus assumed),Emax,CRF1R; read-out: CRF1R Emax,7%
same,Emax,CRF2R; read-out: CRF2R Emax,98%
SQEPPISLDLPTGLLREVLEMTKADQLAQQAHSNRKLLDIA-NH2 [compound 98],Emax,CRF1R; read-out: CRF1R Emax,4%
same,Emax,CRF2R; read-out: CRF2R Emax,5.5%
CC[C@H](C)[C@H](N)C(=O)N[C@H](C(=O)N[C@@H](CC(C)C)C(=O)N[C@@H](CO)C(=O)N[C@@H](CC(C)C)C(=O)N[C@@H](CC(=O)O)C(=O)N[C@H](C(=O)N1CCC[C@H]1C(=O)N[C@H](C(=O)NCC(=O)N[C@@H](CC(C)C)C(=O)N[C@@H](CC(C)C)C(=O)N[C@@H](CCC(N)=O)C(=O)N[C@H](C(=O)N[C@@H](CC(C)C)C(=O)N[C@H](C(=O)N[C@@H](CCC(=O)O)C(=O)N[C@H](C(=O)N[C@@H](CCC(=O)O)C(=O)N[C@@H](CCCCN)C(=O)N[C@@H](CCC(N)=O)C(=O)N[C@@H](CCC(=O)O)C(=O)N[C@@H](CCCCN)C(=O)N[C@@H](CCC(=O)O)C(=O)N[C@@H](CCCCN)C(=O)N[C@@H](CCC(N)=O)C(=O)N[C@@H](CCC(N)=O)C(=O)N[C@@H](C)C(=O)N[C@@H](C)C(=O)N[C@H](C(=O)N[C@H](C(=O)N[C@@H](CC(N)=O)C(=O)N[C@@H](C)C(=O)N[C@@H](CCCNC(=N)N)C(=O)N[C@H](C(=O)N[C@@H](CC(C)C)C(=O)N[C@@H](C)C(=O)N[C@@H](CCCNC(=N)N)C(=O)N[C@H](C(N)=O)C(C)C)[C@@H](C)CC)[C@@H](C)O)[C@@H](C)O)[C@@H](C)CC)[C@@H](C)CC)[C@@H](C)CC)[C@@H](C)CC)C(C)C)C(C)C [compound 168] (H-IVLSLDVPIGLLQILIEIEKQEKEKQQAATTNARILARV-NH2; N-terminus assumed),EC50,CRF1R,≥ 1000 nM
same,Emax,CRF1R; read-out: CRF1R Emax,52%
same,EC50,CRF2R,4.9 nM
same,Emax,CRF2R; read-out: CRF2R Emax,75%
NDDPPISIDLPLFLLRNMIEMARIENEREQAGLNAKYLAEV-NH2 [compound 257],Emax,CRF1R; read-out: CRF1R Emax,83.5%
same,Emax,CRF2R; read-out: CRF2R Emax,72.6%
